Laboratory results from patent US20230313199A1, “TARGET FOR MODULATING BODY MASS” (Massachusetts Institute of Technology, priority 2020, published 2023).

Legend:
MCF7 cells = experiment: Thermogenesis by FPT, parental MCF7 cells; type: cell-based, human; settings: heme for 1 hour
Protocol: Shown are representative graphs of OCR output of the indicated cells with or without hematin treatment and their responses to oligomycin, FCCP, and rotenone plus antimycin A (FIG. 12B), basal OCR (FIG. 12C), maximal OCR (FIG. 12D), and ECAR (FIG. 12E) from two separate experiments with n=10 biologically independent samples. Data are presented as mean value±standard deviation. Each dot represents one technical replicate. […] Parental and knockout cells were incubated with no probe or FPT for 6 hours, and then washed twice. A portion of FPT-treated cells was treated with heme for 1 hour. FPT fluorescence intensity was quantified by flow cytometry. Shown are representative plots from two separate experiments. P-values were calculated using two-way ANOVA (***p<0.001).
In the second approach, we used fluorescent polymeric thermometer (FPT), which we synthesized in-house (see above). Parental and knockout THP-1 cells were mixed together, washed and incubated with FPT in 5% w/v glucose solution for 6 hrs. The cells were washed with PBS twice and reseeded in dishes with glass bottom that was coated with poly-lysine. The cells were imaged under Confocal Laser-Scanning Microscopy at 37° C. […] Then the fluorescence intensities were determined by a flow cytometer.

[1] = target: T1, endogenous MFSD7C and ATP5h (Mus musculus, UniProt Q91X85); experiment: Co-IP of endogenous MFSD7C and ATP5h in bone marrow-derived macrophages; type: cell-based; settings: heme treatment
T1 construct: Co-IP and immunoblotting analysis of endogenous MFSD7C with ATP5h, SERCA2b and HMOX1 in bone marrow-derived macrophages; endogenous in cells; host or cells: bone marrow-derived macrophages from Mfsd7c fl/fl C57BL/6 mice
T1 sequence (Q91X85 whole entry): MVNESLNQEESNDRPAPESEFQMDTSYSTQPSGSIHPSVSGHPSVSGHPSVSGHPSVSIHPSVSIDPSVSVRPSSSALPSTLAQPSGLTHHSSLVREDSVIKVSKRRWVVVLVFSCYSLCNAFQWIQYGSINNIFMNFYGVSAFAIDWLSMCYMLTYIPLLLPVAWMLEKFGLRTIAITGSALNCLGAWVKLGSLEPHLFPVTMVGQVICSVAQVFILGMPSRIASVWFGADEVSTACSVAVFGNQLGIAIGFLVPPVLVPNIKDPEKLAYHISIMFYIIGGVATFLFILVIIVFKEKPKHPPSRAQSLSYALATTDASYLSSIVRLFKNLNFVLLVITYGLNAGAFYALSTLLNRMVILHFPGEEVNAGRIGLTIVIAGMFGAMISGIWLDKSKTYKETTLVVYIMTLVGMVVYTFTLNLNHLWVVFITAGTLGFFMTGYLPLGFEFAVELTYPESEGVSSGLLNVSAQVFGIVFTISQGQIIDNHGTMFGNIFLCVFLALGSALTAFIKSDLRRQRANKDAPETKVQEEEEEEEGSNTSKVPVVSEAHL
Protocol: NTD was incubated with heme and run on Superdex 75 gel filtration column. The flow through was measured for absorbance at 230 nm (gray), 380 nm (blue), and 415 nm (green). Absorbance intensity was normalized to maximum value. […] Heme (100 μM) absorption was set to zero. […] Wildtype (WT) and mutant (Mut) peptide sequences are shown. […] Shown are representative data from five separate experiments. […] Shown are immunoblots of MFSD7C, ATP5h, SERCA2b, and HMOX1 on whole lysates or immunoblots of MFSD7C on anti-ATP5h, anti-SERCA2b and anti-HMOX1 immunoprecipitates. Representative data from one from three experiments are shown. […] Shown are representative data from three separate experiments. WCE: whole cell extract, Sup: supernatant, Mito: 10,000 g mitochondrial fraction. […] THP-1 cells were stained with MitoTracker (green), fixed and permeabilized, and then stained with rabbit polyclonal antibody specific for the C-terminus of MFSD7C, followed with Alexa Fluor® 594-labelled goat anti-rabbit antibody (red). Nuclei were labeled using DAPI (blue). […]
Differentiation of bone marrow-derived macrophage (BMDM). […] Cells were resuspended in DMEM media containing 10% FBS, 2 mM L-glutamine, 2 mM pyruvate, non-essential amino acids (100 μM each), 0.55 mM 2-mercaptoethanol, penicillin/streptomycin), passed through a 40 μm Falcon cell strainer (VWR) to remove large aggregates, and counted. […]

4B8^FL cells = experiment: MMP (JC-10 kit, flow cytometry) in 4B8 cells complemented with full length MFSD7C; type: cell-based, human; settings: heme 1 hour
Protocol: FIGS. 4A-4H show NTD of MFSD7C mediates heme effect on mitochondrial respiration. FIGS. 4A-4C show comparison of basal OCR (FIG. 4A), maximal OCR (FIG. 4B) and ECAR (FIG. 4C) of THP-1, 4B8, and 4B8^FL and 4B8^ΔN cells treated with vehicle or heme for 1 hour (n=18 separate experiments). […] Cells were incubated with FPT for 6 hrs, washed and reseeded in poly-lysine coated glass bottom dishes. After cells attached to the glass, medium containing 40 μM heme was added. Cells in the same field were imaged immediately and again 1 hour later. Relative FPT fluorescent intensities, normalized to THP-1, from three experiments are shown. (n=3 independent experiments). […] THP-1 cells were co-cultured with 4B8, 4B8^FL, or 4B8^ΔN in FPT solution for 6 hrs, washed and reseeded in poly-lysine coated glass bottom dishes. Cells were imaged by confocal laser-scanning microscopy. […] Representative images from three experiments are shown. Scale bar: 10 μm. […] THP-1, 4B8, 4B8^FL and 4B8^ΔN cells were treated with vehicle or heme for 1 hour and MMP was measured by using JC-10 Mitochondrial Membrane Potential Assay Kit followed by flow cytometry. […] Shown are representative Western blotting data (FIG. 4G) and quantification of band intensities from n=3 independent experiments (FIG. 4H). P-values were calculated using two-way ANOVA (*p<0.05, **p<0.01, ***p<0.005). […]

`C=CC1=C(C)c2cc3[n-]c(cc4[n-]c(cc5nc(cc1n2)C(C)=C5C=C)c(C)c4CCC(=O)O)c(CCC(=O)O)c3C.[Fe+2]` [heme] was tested, and the FTP intensity (MCF7 cells) was “significantly stimulated”, the “interactions between endogenous MFSD7C and ATP5h (co-IP)” value [1] was “disrupted” and the MMP (4B8^FL cells) was “decreased”.
